In patent US20250064789A1, “KETOAMIDE DERIVATIVES AND PHARMACEUTICAL USES THEREOF” (priority 2022, published 2025):
Read-outs that look alike come from different tables or passages of the source.

Target: recombinant SARS-CoV-2 M^pro (Severe acute respiratory syndrome coronavirus 2 (2019-nCoV) (SARS-CoV-2), UniProt P0DTD1)
Assay: Inhibition of SARS-CoV-2 M^pro enzyme activity (fluorescent substrate assay)
Format: biochemical
Conditions: inhibition of SARS-CoV-2 M^pro enzyme activity, read-out: IC50

Row | Structure (SMILES) | IC50 (values given in μM) | IC50 (values in nM)
1 | O=C(NCc1ccccn1)C(=O)[C@@H](Cc1ccccc1)NC(=O)C1(NC(=O)N2CCC(F)(F)CC2)CC1 [Compound 300] | 2.43 ± 0.04 µM | –
2 | CC(C)(NC(=O)NC1CCC(F)(F)CC1)C(=O)N[C@H](Cc1ccccc1)C(=O)C(=O)NCc1ccccn1 [Compound 301] | – | 0.0092 ± 0.0004 µM
3 | CC(C)(NC(=O)N1CCC(F)(F)CC1)C(=O)N[C@H](Cc1ccccc1)C(=O)C(=O)NCc1ccccn1 [Compound 302] | – | 0.0415 ± 0.0009 µM
4 | CC(C)(NC(=O)NCC1CCC(F)(F)CC1)C(=O)N[C@H](Cc1ccccc1)C(=O)C(=O)NCc1ccccn1 [Compound 303] | – | 0.0107 ± 0.001 µM
5 | O=C(CNC(=O)N1CCC(F)(F)CC1)N[C@H](Cc1ccccc1)C(=O)C(=O)NCc1ccccn1 [Compound 304] | – | 0.0538 ± 0.0058 µM
6 | O=C(CNC(=O)NC1CCC(F)(F)CC1)N[C@H](Cc1ccccc1)C(=O)C(=O)NCc1ccccn1 [Compound 305] | – | 0.0243 ± 0.0004 µM
7 | O=C(N[C@@H](C1CC1)C(F)(F)F)NC1(C(=O)N[C@H](Cc2ccccc2)C(=O)C(=O)NCc2ccccn2)CCC1 [Compound 306] | – | 0.0193 ± 0.001 µM
8 | O=C(N[C@H](C1CC1)C(F)(F)F)NC1(C(=O)N[C@H](Cc2ccccc2)C(=O)C(=O)NCc2ccccn2)CCC1 [Compound 307] | – | 0.026 ± 0.0021 µM
9 | O=C(NCc1ccccn1)C(=O)[C@@H](Cc1ccccc1)NC(=O)[C@H]1CC2CCCCC2N1C(=O)NCC1CC(F)(F)C1 (stereo partly shown) [Compound 308] | – | 0.0139 ± 0.0012 µM
10 | O=C(NCc1ccccn1)C(=O)[C@@H](Cc1ccccc1)NC(=O)[C@H]1CC2CCCCC2N1C(=O)N1CCC(F)(F)CC1 (stereo partly shown) [Compound 309] | – | 0.0194 µM
11 | O=C(NCc1ccccn1)C(=O)[C@@H](Cc1ccccc1)NC(=O)[C@H]1Cc2ccccc2CN1C(=O)NCC1CC(F)(F)C1 [Compound 310] | – | 0.0124 µM
12 | O=C(NCc1ccccn1)C(=O)[C@@H](Cc1ccccc1)NC(=O)[C@H]1Cc2ccccc2CN1C(=O)N1CCC(F)(F)CC1 [Compound 311] | – | 0.0167 ± 0.0006 µM
13 | O=C(NCc1ccccn1)C(=O)[C@@H](Cc1ccccc1)NC(=O)[C@H]1Cc2ccccc2CN1C(=O)OC1CCC(F)(F)CC1 [Compound 312] | – | 0.0145 ± 0.0001 µM
14 | O=C(NC1(C(=O)N[C@H](Cc2ccccc2)C(=O)C(=O)NCc2ccccn2)CCC1)OCC1CCC(F)(F)CC1 [Compound 313, (4,4-difluorocyclohexyl)methyl(R)-(1-((3,4-dioxo-1-phenyl-4-((pyridin-2-ylmethyl)amino)butan-2-yl)carbamoyl)cyclobutyl) carbamate] | – | 0.016 ± 0.002 µM
15 | O=C(NC1(C(=O)N[C@H](Cc2ccccc2)C(=O)C(=O)NCc2ccccn2)CCC1)OC1CCC(F)(F)CC1 [Compound 314] | – | 0.0124 ± 0.0003 µM
16 | O=C(NC1(C(=O)N[C@H](Cc2ccccc2)C(=O)C(=O)NCc2ccccn2)CCC1)O[C@H]1CO[C@H]2OCC[C@H]21 [Compound 315] | – | 0.0202 ± 0.0033 µM
17 | C[C@@H](NC(=O)OCc1ccccc1)C(=O)N[C@H](Cc1ccccc1)C(=O)C(=O)NCc1ccccn1 [Compound 316] | – | 0.0159 ± 0.0004 µM
18 | O=C(NCc1ccccn1)C(=O)[C@@H](Cc1ccccc1)NC(=O)C1(C(=O)NC2CCC(F)(F)CC2)CC1 [Compound 319] | – | 0.0371 ± 0.0029 µM
19 | O=C(NCc1ccccn1)C(=O)[C@@H](Cc1ccccc1)NC(=O)C1(C(=O)NCC2CCC(F)(F)CC2)CC1 [Compound 320] | – | 0.0167 ± 0.0003 µM
20 | O=C(NCc1ccccn1)C(=O)[C@@H](Cc1ccccc1)NC(=O)C1(C(=O)NCc2cnccn2)CC1 [Compound 321] | – | 0.166 ± 0.0026 µM
21 | O=C(NCc1ccccn1)C(=O)[C@@H](Cc1ccccc1)NC(=O)C1(C(=O)Nc2ccc(F)cc2)CC1 [Compound 322] | – | 0.125 ± 0.006 µM

Row | Structure (SMILES) | IC50 (values given in μM) | IC50 (values in nM)
22 | CC(C)(C(=O)NC1CCC(F)(F)CC1)C(=O)N[C@H](Cc1ccccc1)C(=O)C(=O)NCc1ccccn1 [Compound 323] | – | 0.0307 ± 0.0019 µM
23 | CC(C)(C(=O)N[C@H](Cc1ccccc1)C(=O)C(=O)NCc1ccccn1)C(=O)N1CCC(C(F)(F)F)CC1 [Compound 325] | – | 0.177 ± 0.0025 µM
24 | CC(C)(C(=O)N[C@H](Cc1ccccc1)C(=O)C(=O)NCc1ccccn1)n1cc(-c2ccccc2)cn1 [Compound 326, (R)-3-(2-methyl-2-(4-phenyl-1H-pyrazol-1-yl)propionamido)-2-oxo-4-phenyl-N-(pyridin-2-ylmethyl)butyramide] | – | 0.0207 ± 0.0005 µM
25 | CC(C)(C(=O)N[C@H](Cc1ccccc1)C(=O)C(=O)NCc1ccccn1)n1cc(Br)cn1 [Compound 327] | – | 0.245 ± 0.0027 µM
26 | CC(C)(C(=O)N[C@H](Cc1ccccc1)C(=O)C(=O)NCc1ccccn1)n1cc(-c2ccccc2F)cn1 [Compound 328] | – | 0.0317 ± 0.0001 µM
27 | CC(C)(C(=O)N[C@H](Cc1ccccc1)C(=O)C(=O)NCc1ccccn1)n1cc(-c2cccc(F)c2)cn1 [Compound 329] | – | 0.0194 ± 0.0018 µM
28 | CC(C)(C(=O)N[C@H](Cc1ccccc1)C(=O)C(=O)NCc1ccccn1)n1cc(-c2ccc(F)cc2)cn1 [Compound 330] | – | 0.195 ± 0.0145 µM
29 | C[C@@H](NS(=O)(=O)c1ccc(F)cc1)C(=O)N[C@H](Cc1ccccc1)C(=O)C(=O)NCc1ccccn1 [Compound 331, (R)-3-((R)-2-((4-fluorophenyl)sulfonamido)propionamido)-2-oxo-4-phenyl-N-(pyridin-2-ylmethyl)butyramide] | – | 0.101 ± 0.0028 µM
30 | C[C@@H](NS(=O)(=O)c1cccnc1)C(=O)N[C@H](Cc1ccccc1)C(=O)C(=O)NCc1ccccn1 [Compound 332] | – | 0.8883 ± 0.0012 µM
31 | C[C@@H](NC(=O)C1CCC(F)(F)CC1)C(=O)NCC(=O)C(=O)NCc1ccccn1 [Compound 334] | > 5 µM | –
32 | C[C@@H](NC(=O)C1CCC(F)(F)CC1)C(=O)N[C@H](Cc1ccccc1)C(=O)C(=O)NCc1ccc(F)cn1 [Compound 336] | – | 0.015 ± 0.0008 µM
33 | C[C@@H](NC(=O)C1CCC(F)(F)CC1)C(=O)N[C@H](Cc1ccccc1)C(=O)C(=O)NCc1ncccn1 [Compound 337] | – | 0.0879 ± 0.0146 µM
34 | C[C@@H](NC(=O)C1CCC(F)(F)CC1)C(=O)N[C@H](Cc1ccccc1)C(=O)C(=O)NCc1ccncn1 [Compound 338] | – | 0.02 ± 0.0008 µM
35 | COc1cccnc1CNC(=O)C(=O)[C@@H](Cc1ccccc1)NC(=O)[C@@H](C)NC(=O)C1CCC(F)(F)CC1 [Compound 339] | 6.13 ± 0.22 µM | –
36 | Cc1cccnc1CNC(=O)C(=O)[C@@H](Cc1ccccc1)NC(=O)[C@@H](C)NC(=O)C1CCC(F)(F)CC1 [Compound 340] | – | 0.0762 ± 0.0017 µM
37 | C[C@@H](NC(=O)C1CCC(F)(F)CC1)C(=O)N[C@H](Cc1ccccc1)C(=O)C(=O)NCc1ncccc1Cl [Compound 341] | 11.5 ± 3.79 µM | –
38 | COc1ccnc(CNC(=O)C(=O)[C@@H](Cc2ccccc2)NC(=O)[C@@H](C)NC(=O)C2CCC(F)(F)CC2)c1 [Compound 342] | – | 0.0222 ± 0.0002 µM
39 | C[C@@H](NC(=O)C1CCC(F)(F)CC1)C(=O)N[C@H](Cc1ccccc1)C(=O)C(=O)NCc1cc(Cl)ccn1 [Compound 343] | – | 0.0183 ± 0.0007 µM
40 | C[C@@H](NC(=O)C1CCC(F)(F)CC1)C(=O)N[C@H](Cc1ccccc1)C(=O)C(=O)NCc1ccc(C(F)(F)F)cn1 [Compound 344] | – | 0.8572 ± 0.0031 µM
41 | COc1ccc(CNC(=O)C(=O)[C@@H](Cc2ccccc2)NC(=O)[C@@H](C)NC(=O)C2CCC(F)(F)CC2)nc1 [Compound 345] | – | 0.0609 ± 0.0047 µM
42 | C[C@@H](NC(=O)C1CCC(F)(F)CC1)C(=O)N[C@H](Cc1ccccc1)C(=O)C(=O)NCc1c[nH]cn1 [Compound 346] | > 2.5 µM | –

Row | Structure (SMILES) | IC50 (values given in μM) | IC50 (values in nM)
43 | C[C@@H](NC(=O)C1CCC(F)(F)CC1)C(=O)N[C@H](Cc1ccccc1)C(=O)C(=O)NCc1nccn1C [Compound 347] | > 2.5 µM | –
44 | C[C@@H](NC(=O)C1CCC(F)(F)CC1)C(=O)N[C@H](Cc1ccccc1)C(=O)C(=O)NCc1cocn1 [Compound 350] | – | 0.042 ± 0.0037 µM
45 | Cc1nc(CNC(=O)C(=O)[C@@H](Cc2ccccc2)NC(=O)[C@@H](C)NC(=O)C2CCC(F)(F)CC2)cs1 [Compound 351] | 1.16 ± 0.32 µM | –
46 | C[C@@H](NC(=O)C1CCC(F)(F)CC1)C(=O)N[C@H](Cc1ccccc1)C(=O)C(=O)NCc1ncco1 [Compound 352] | 2.5 ± 0.29 µM | –
47 | C[C@@H](NC(=O)C1CCC(F)(F)CC1)C(=O)N[C@H](Cc1ccccc1)C(=O)C(=O)NCc1ccon1 [Compound 353] | – | 0.8458 ± 0.0021 µM
48 | C[C@@H](NC(=O)C1CCC(F)(F)CC1)C(=O)N[C@H](Cc1ccccc1)C(=O)C(=O)NCc1nc2ccccc2s1 [Compound 355] | > 2.5 µM | –
49 | Cc1cnc(CNC(=O)C(=O)[C@@H](Cc2ccccc2)NC(=O)[C@@H](C)NC(=O)C2CCC(F)(F)CC2)s1 [Compound 356] | – | 0.0431 ± 0.0001 µM
50 | C[C@@H](NC(=O)C1CCC(F)(F)CC1)C(=O)N[C@H](Cc1ccccc1)C(=O)C(=O)NCc1cscn1 [Compound 357] | – | 0.0223 ± 0.0009 µM
51 | CCC[C@@H](NC(=O)[C@@H](C)NC(=O)C1CCC(F)(F)CC1)C(=O)C(=O)NCc1ccccn1 [Compound 358] | – | 0.0932 ± 0.0011 µM
52 | C[C@@H](NC(=O)C1CCC(F)(F)CC1)C(=O)N[C@H](Cc1ccc(F)cc1)C(=O)C(=O)NCc1ccccn1 [Compound 359] | – | 0.0364 ± 0.0019 µM
53 | C[C@@H](NC(=O)C1CCC(F)(F)CC1)C(=O)N[C@H](Cc1cccc(F)c1)C(=O)C(=O)NCc1ccccn1 [Compound 360] | – | 0.031 ± 0.0039 µM
54 | C[C@@H](NC(=O)C1CCC(F)(F)CC1)C(=O)N[C@H](Cc1ccccc1F)C(=O)C(=O)NCc1ccccn1 [Compound 361] | – | 0.0272 ± 0.0028 µM
55 | C[C@@H](NC(=O)CC1CC(F)(F)C1)C(=O)N[C@H](Cc1ccco1)C(=O)C(=O)NCc1ccccn1 [Compound 364] | – | 0.0751 ± 0.0001 µM
56 | C[C@@H](NC(=O)C1CCC(F)(F)CC1)C(=O)N[C@H](CC1CCCCC1)C(=O)C(=O)NCc1ccccn1 [Compound 365] | – | 0.0231 ± 0.001 µM
57 | C[C@@H](NC(=O)C1C[C@@H]2[C@H](C1)C2(F)F)C(=O)N[C@H](Cc1ccco1)C(=O)C(=O)NCc1ccccn1 (stereo partly shown) [Compound 366] | – | 0.0646 ± 0.0007 µM
58 | C[C@@H](NC(=O)C1CCC(F)(F)CC1)C(=O)N[C@H](Cc1ccco1)C(=O)C(=O)NCc1nccs1 [Compound 367] | – | 0.105 ± 0.0105 µM
59 | C[C@@H](NC(=O)CC1CC1(F)F)C(=O)N[C@H](Cc1ccco1)C(=O)C(=O)NCc1nccs1 (stereo partly shown) [Compound 368] | – | 0.197 ± 0.014 µM
60 | C[C@@H](NC(=O)C1CCCCCC1)C(=O)N[C@H](Cc1ccccc1)C(=O)C(=O)NCc1nccs1 [Compound 370] | – | 0.0148 ± 0.0007 µM
61 | C[C@@H](NC(=O)C1CC2CCC1C2)C(=O)N[C@H](Cc1ccccc1)C(=O)C(=O)NCc1nccs1 (stereo partly shown) [Compound 371] | – | 0.0317 ± 0.0026 µM
